Blank lines part the entries; values can stand above or below the compound they belong to.
Assays:
dengue virus type 2 [1] = test: Antiviral activity against DENV2 assessed as reduction in plaque formation; assay type: functional, organism-based
dengue virus type 1 [2] = test: Antiviral activity against DENV1 after 48 hrs by qRT-PCR analysis; assay type: functional, organism-based
dengue virus type 2 [3] = test: Antiviral activity against DENV2 after 48 hrs by qRT-PCR analysis; assay type: functional, organism-based
dengue virus type 4 [4] = test: Antiviral activity against DENV4 after 48 hrs by qRT-PCR analysis; assay type: functional, organism-based
dengue virus type 3 [5] = test: Antiviral activity against DENV3 after 48 hrs by qRT-PCR analysis; assay type: functional, organism-based
dengue virus type 4 [6] = test: Antiviral activity against DENV4 TVP360 infected in human Huh7.5 cells after 72 hrs by flow cytometric analysis; assay type: functional, organism-based; conditions: TVP360, Huh7.5, 72 h
dengue virus type 1 [7] = test: Antiviral activity against DENV1 FGA/89 infected in human Huh7.5 cells after 72 hrs by flow cytometric analysis; assay type: functional, organism-based; conditions: FGA/89, Huh7.5, 72 h
dengue virus type 2 [8] = test: Antiviral activity against DENV2 ICC265 infected in human Huh7.5 cells after 72 hrs by flow cytometric analysis; assay type: functional, organism-based; conditions: ICC265, Huh7.5, 72 h
dengue virus type 3 [9] = test: Antiviral activity against DENV3 5532 infected in human Huh7.5 cells after 72 hrs by flow cytometric analysis; assay type: functional, organism-based; conditions: Dengue virus, 5532, Huh7.5, 72 h
dengue virus type 2 [10] = test: Antiviral activity against DENV2 infected in African green monkey Vero cells assessed as virus yield reduction after 48 hrs by plaque assay; assay type: functional, organism-based
dengue virus type 3 [11] = test: Antiviral activity against DENV3 infected in African green monkey Vero cells assessed as virus yield reduction after 48 hrs by plaque assay; assay type: functional, organism-based
dengue virus type 1 [12] = test: Antiviral activity against DENV1 infected in African green monkey Vero cells assessed as virus yield reduction after 48 hrs by plaque assay; assay type: functional, organism-based
dengue virus type 4 [13] = test: Antiviral activity against DENV4 infected in African green monkey Vero cells assessed as virus yield reduction after 48 hrs by plaque assay; assay type: functional, organism-based
dengue virus type 2 [14] = test: Antiviral activity against DENV2 16681 infected in HEK293 cells after 72 hrs by luciferase reporter gene assay; assay type: functional, organism-based; conditions: Dengue virus, 16681, HEK293, 72 h
dengue virus type 1 [15] = test: Antiviral activity against DENV1 after 48 hrs by focus reduction assay; assay type: functional, organism-based
dengue virus type 3 [16] = test: Antiviral activity against DENV3 after 48 hrs by focus reduction assay; assay type: functional, organism-based
dengue virus type 2 [17] = test: Antiviral activity against DENV2 after 48 hrs by focus reduction assay; assay type: functional, organism-based
dengue virus type 4 [18] = test: Antiviral activity against DENV4 after 48 hrs by focus reduction assay; assay type: functional, organism-based
dengue virus type 2 [19] = test: Antiviral activity against DENV2 infected in BHK cells assessed as reduction in viral Yield at 20 uM after 48 hrs by fluorescence focus formation assay relative to control; assay type: functional; design: scale not given: the % may be the effect or the level left
dengue virus type 2 [20] = test: Antiviral activity against DENV2 infected in human Huh7 cells assessed as reduction in viral Yield at 20 uM after 48 hrs by fluorescence focus formation assay relative to control; assay type: functional; design: scale not given: the % may be the effect or the level left
dengue virus type 2 [21] = test: Antiviral activity against DENV2 infected in human HepG2 cells assessed as reduction in viral infection at 20 uM after 24 to 72 hrs by FFU assay relative to control; assay type: functional; design: scale not given: the % may be the effect or the level left
dengue virus type 2 [22] = test: Antiviral activity against DENV2 infected in […] BHK-15 cells after 48 hrs by luciferase reporter gene assay; assay type: functional, organism-based; conditions: BHK15, 48 h
dengue virus type 4 [23] = test: Antiviral activity against DENV4 infected in human HepG2 cells assessed as reduction in viral infection at 20 uM after 24 to 72 hrs by FFU assay relative to control; assay type: functional; design: scale not given: the % may be the effect or the level left
dengue virus type 3 [24] = test: Antiviral activity against DENV3 infected in human HepG2 cells assessed as reduction in viral infection at 20 uM after 24 to 72 hrs by FFU assay relative to control; assay type: functional; design: scale not given: the % may be the effect or the level left
dengue virus type 1 [25] = test: Antiviral activity against DENV1 infected in human HepG2 cells assessed as reduction in viral infection at 20 uM after 24 to 72 hrs by FFU assay relative to control; assay type: functional; design: scale not given: the % may be the effect or the level left
dengue virus type 3 [26] = test: Antiviral activity against DENV3 infected in African green monkey Vero cells assessed as virus yield reduction after 48 hrs by measuring plaque forming units titration; assay type: functional, organism-based
dengue virus type 1 [27] = test: Antiviral activity against DENV1 infected in African green monkey Vero cells assessed as virus yield reduction after 48 hrs by measuring plaque forming units titration; assay type: functional, organism-based
dengue virus type 2 [28] = test: Antiviral activity against DENV2 infected in African green monkey Vero cells assessed as virus yield reduction after 48 hrs by measuring plaque forming units titration; assay type: functional, organism-based
dengue virus type 4 [29] = test: Antiviral activity against DENV4 infected in African green monkey Vero cells assessed as virus yield reduction after 48 hrs by measuring plaque forming units titration; assay type: functional, organism-based
dengue virus type 2 [30] = test: Antiviral activity against DENV2 infected in monkey LLC-MK2 cells; assay type: functional, organism-based

Compound: NCC(=O)Nc1ccc(-n2nc(C(F)(F)F)cc2-c2ccc3c(ccc4ccccc43)c2)cc1 [AR-12]
EC50 (dengue virus type 1 [2]): 0.6 to 0.8 µM | EC50 (dengue virus type 2 [3]): 0.6 to 0.8 µM | EC50 (dengue virus type 4 [4]): 0.6 to 0.8 µM | EC50 (dengue virus type 3 [5]): 0.6 to 0.8 µM

Compound: O=C1C[C@@H](c2ccc(O)cc2)Oc2cc(O)cc(O)c21 [NARINGENIN]
EC50 (dengue virus type 4 [6]): 35.8 to 178 µM | EC50 (dengue virus type 1 [7]): 35.8 to 178 µM | EC50 (dengue virus type 2 [8]): 35.8 to 178 µM | EC50 (dengue virus type 3 [9]): 35.8 to 178 µM

Compound: COc1ccc2c3ccnc(C)c3n(C)c2c1
EC50 (dengue virus type 2 [10]): 3.2 to 49.5 µM | EC50 (dengue virus type 3 [11]): 3.2 to 49.5 µM | EC50 (dengue virus type 1 [12]): 3.2 to 49.5 µM | EC50 (dengue virus type 4 [13]): 3.2 to 49.5 µM

Compound: CN1CCN(C2Cc3ccc(F)cc3Sc3ccc(O)cc32)CC1 (stereo not given)
IC50 (dengue virus type 2 [14]): 1.2 µM

Compound: C[C@H]1CCC/C=C/[C@@H]2C[C@H](O)C[C@H]2[C@H](O)/C=C/C(=O)O1 [BREFELDIN A]
EC50 (dengue virus type 1 [15]): 54.6 to 65.7 µM | EC50 (dengue virus type 3 [16]): 54.6 to 65.7 µM | EC50 (dengue virus type 2 [17]): 54.6 to 65.7 µM | EC50 (dengue virus type 4 [18]): 54.6 to 65.7 µM

Compound: C=CCc1ccc(O)c(-c2ccc(O)c(CC=C)c2)c1 [HONOKIOL]
Activity (dengue virus type 2 [19]): >90% | Activity (dengue virus type 2 [20]): >90%

The next lines start with results.

IC50 (dengue virus type 2 [1]): 11.5 µM
Compound: COc1cc(/C=C/C(=O)CC(=O)/C=C/c2ccc(O)c(OC)c2)ccc1O [CURCUMIN]

EC50 (dengue virus type 2 [22]): 10 µM
Compound: COc1c(O)cc2oc3cc(O)c(CC=C(C)C)c(O)c3c(=O)c2c1CC=C(C)C [MANGOSTIN]
Activity (dengue virus type 2 [21]): 47 - 55% | Activity (dengue virus type 4 [23]): 47 - 55% | Activity (dengue virus type 3 [24]): 47 - 55% | Activity (dengue virus type 1 [25]): 47 - 55%

EC50 (dengue virus type 3 [26]): 12.5 to 27.1 µM | EC50 (dengue virus type 1 [27]): 12.5 to 27.1 µM | EC50 (dengue virus type 2 [28]): 12.5 to 27.1 µM | EC50 (dengue virus type 4 [29]): 12.5 to 27.1 µM
Compound: C=CCn1c2ccccc2c(=O)c2cc(Cl)ccc21

EC50 (dengue virus type 2 [30]): 9.77 µM
Compound: C=C(C)[C@@H]1CC[C@]2(C)CC[C@]3(C)[C@H](CC[C@@H]4[C@@]5(C)CC[C@H](O)C(C)(C)[C@@H]5CC[C@]43C)[C@@H]12 [LUPEOL]
